Data: ChEMBL document CHEMBL5143579, “Aulosirazoles B and C from the Cyanobacterium Nostoc sp. UIC 10771: Analogues of an Isothiazolonaphthoquinone Scaffold that Activate Nuclear Transcription Factor FOXO3a in Ovarian Cancer Cells” (J Nat Prod, 2022)
Each block holds one compound with its values, some of them ahead of it. Active and inactive are the calls of the source. No cut-off for these calls is given here.

How the values were obtained:
OVCAR-3 = test: Cytotoxicity against human OVCAR-3 cells assessed as inhibition of cell growth incubated for 72 hrs by CellTiter-Blue cell viability assay; assay type: functional, cell-based; details: OVCAR-3, 72 h
[1] = target: Forkhead box protein O3 (Homo sapiens) (UniProt O43524); test: Transactivation of FOXO3a in human OVACAR-3 cells assessed as nuclear accumulation of FOXO3a at 2 uM incubated for 3 hrs by western blot analysis; assay type: cell-based; details: OVCAR-3, filed as activator
[2] = target: Forkhead box protein O3 (Homo sapiens) (UniProt O43524); test: Activation of FOXO3a in human OVACAR-3 cells assessed as nuclear accumulation of FOXO3a at 2 uM incubated for 3 hrs by DAPI staining based immunofluorescence assay; assay type: cell-based; details: OVCAR-3, filed as activator
[3] = target: Forkhead box protein O3 (Homo sapiens) (UniProt O43524); test: Activation of FOXO3a in human OVACAR-3 cells assessed as cytosolic localization of FOXO3a at 2 uM incubated for 3 hrs by DAPI staining based immunofluorescence assay; assay type: cell-based; details: OVCAR-3, filed as activator
[4] = target: Forkhead box protein O3 (Homo sapiens) (UniProt O43524); test: Transactivation of FOXO3a in human OVACAR-3 cells assessed as increase in nuclear accumulation of FOXO3a at 1 uM incubated for 24 hrs by western blot analysis; assay type: cell-based; details: OVCAR-3, filed as activator
[5] = target: Forkhead box protein O3 (Homo sapiens) (UniProt O43524); test: Transactivation of FOXO3a in human OVACAR-3 cells assessed as decrease in cytosolic concentration of FOXO3a at 1 uM for 3 hrs by western blot analysis; assay type: cell-based; details: OVCAR-3, filed as activator
[6] = target: Forkhead box protein O3 (Homo sapiens) (UniProt O43524); test: Activation of FOXO3a in human OVACAR-3 cells assessed as increase in nuclear accumulation of FOXO3a at 1 uM incubated for 3 hrs by DAPI staining based immunofluorescence assay; assay type: cell-based; details: OVCAR-3, filed as activator
[7] = target: Forkhead box protein O3 (Homo sapiens) (UniProt O43524); test: Activation of FOXO3a in human OVACAR-3 cells assessed as decrease in cytosolic localization of FOXO3a at 1 uM incubated for 3 hrs by DAPI staining based immunofluorescence assay; assay type: cell-based; details: OVCAR-3, filed as activator

Forkhead box protein O3 (Homo sapiens), sequence (O43524 whole entry): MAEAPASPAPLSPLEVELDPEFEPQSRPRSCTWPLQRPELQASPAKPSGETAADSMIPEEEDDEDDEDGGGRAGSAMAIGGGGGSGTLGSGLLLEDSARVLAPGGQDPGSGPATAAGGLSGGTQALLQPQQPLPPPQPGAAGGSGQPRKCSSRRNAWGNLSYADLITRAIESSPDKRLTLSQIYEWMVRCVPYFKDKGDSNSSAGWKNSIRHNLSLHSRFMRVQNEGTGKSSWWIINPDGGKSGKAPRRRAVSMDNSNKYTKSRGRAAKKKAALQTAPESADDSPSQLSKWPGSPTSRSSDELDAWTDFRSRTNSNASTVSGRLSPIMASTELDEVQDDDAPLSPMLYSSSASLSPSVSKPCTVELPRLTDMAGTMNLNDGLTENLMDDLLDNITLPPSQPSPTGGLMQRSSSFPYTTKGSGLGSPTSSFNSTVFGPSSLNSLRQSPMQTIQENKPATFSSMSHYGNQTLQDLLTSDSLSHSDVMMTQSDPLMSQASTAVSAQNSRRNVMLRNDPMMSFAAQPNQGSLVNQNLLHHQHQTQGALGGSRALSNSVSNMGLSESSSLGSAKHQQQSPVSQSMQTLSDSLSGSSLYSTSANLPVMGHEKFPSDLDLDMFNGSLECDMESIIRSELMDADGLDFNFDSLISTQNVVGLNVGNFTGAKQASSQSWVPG

Activity [1]: Active | Activity [2]: Active | Activity [3]: Active
Structure (SMILES): O=c1cc(N2CCOCC2)oc2c(-c3ccccc3)cccc12 [LY-294002]
IC50 (OVCAR-3): 9190 nM

Activity [4]: Active | Activity [5]: Active | Activity [6]: Active | Activity [7]: Active
Structure (SMILES): COc1nsc2c1C(=O)c1c(O)cccc1C2=O
IC50 (OVCAR-3): 301 nM

Structure (SMILES): COc1nsc2c1C(=O)c1c(O)ccc(C(=O)O)c1C2=O
IC50 (OVCAR-3): 3030 nM

Structure (SMILES): COc1nsc2c1C(=O)c1ccccc1C2=O
IC50 (OVCAR-3): 600 nM
